Measurements from patent publication US20250230193A1, “CYCLIC COMPOUND HAVING SELECTIVE KRAS INHIBITORY EFFECT ON HRAS AND NRAS” (CHUGAI SEIYAKU KABUSHIKI KAISHA, priority 2022, published 2025).

How the values were obtained:
[1] = biological target: GDP-bound NRAS wild-type protein (Homo sapiens, UniProt P01111); experiment: Binding to NRAS by surface plasmon resonance (SPR), Single Cycle Kinetics; details: KD ratio NRAS/KRAS, SPR, GDP-bound wild-type proteins
[2] = biological target: GDP-bound HRAS wild-type protein (Homo sapiens, UniProt P01112); experiment: Binding to HRAS by surface plasmon resonance (SPR), Single Cycle Kinetics; details: KD ratio HRAS/KRAS, SPR, GDP-bound wild-type proteins
Chain of GDP-bound HRAS wild-type protein (P01112 whole entry): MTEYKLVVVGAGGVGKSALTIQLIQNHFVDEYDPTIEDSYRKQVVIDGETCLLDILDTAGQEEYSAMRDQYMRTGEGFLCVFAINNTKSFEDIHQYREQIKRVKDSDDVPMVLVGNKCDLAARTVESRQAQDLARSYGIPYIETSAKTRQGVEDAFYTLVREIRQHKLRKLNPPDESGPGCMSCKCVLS

Chain of GDP-bound NRAS wild-type protein (P01111 whole entry): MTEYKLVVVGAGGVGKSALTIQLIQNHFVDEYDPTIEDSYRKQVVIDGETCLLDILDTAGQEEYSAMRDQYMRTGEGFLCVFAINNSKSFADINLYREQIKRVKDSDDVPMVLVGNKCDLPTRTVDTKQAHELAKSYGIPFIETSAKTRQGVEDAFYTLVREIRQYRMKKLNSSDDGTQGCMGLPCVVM

SMILES | NRAS/KRAS (ratio of KD value with respect to GDP-bound NRAS wild-type protein to KD value with respect to KRAS) [1] | HRAS/KRAS (ratio of KD value with respect to GDP-bound HRAS wild-type protein to KD value with respect to KRAS) [2]
CCC[C@H]1C(=O)N[C@@H]([C@@H](C)CC)C(=O)N(C)CC(=O)N(C)[C@H]2C/C=C\CCN(C2=O)[C@@H](Cc2ccc(C)cc2)C(=O)N(C)CC(=O)N[C@@H](CCc2ccc(C(F)(F)F)c(OC)c2)C(=O)N2C[C@H](OCC)C[C@H]2C(=O)N(C)C2(CCC2)C(=O)N(C)[C@@H](C2CCCC2)C(=O)N(C)[C@H](C(=O)N2CCCCC2)CC(=O)N1C [PP3104, (2S,8S,12R,14S,20S,23S,27S,30S,36S,38Z)-20-cyclopentyl-12-ethoxy-8-[2-[3-methoxy-4-(trifluoromethyl)phenyl]ethyl]-4,16,19,22,26,32,35-heptamethyl-30-[(1S)-1-methylpropyl]-23-(piperidine-1-carbonyl)-27-propyl-2-(p-tolylmethyl)spiro[1,4,7,10,16,19,22,26,29,32,35-undecazatricyclo[34.5.1.0^10,14]dotetracont-38-ene-17,1′-cyclobutane]-3,6,9,15,18,21,25,28,31,34,42-undecone] | A (a compound having 10 or more and less than 20 is denoted as A) | A (a compound having 10 or more and less than 20 is denoted as A)
CCC[C@H]1C(=O)N[C@@H]([C@@H](C)CC)C(=O)N(C)CC(=O)N(C)[C@H]2C/C=C\CCN(C2=O)[C@@H](Cc2ccc(C(F)(F)F)cc2)C(=O)N(C)CC(=O)N[C@@H](CCc2ccc(C(F)(F)F)c(OC)c2)C(=O)N2C[C@H](OCC)C[C@H]2C(=O)N(C)C2(CCC2)C(=O)N(C)[C@@H](C2CCCC2)C(=O)N(C)[C@H](C(=O)N2CCCC2)CC(=O)N1C [PP3105, (2S,8S,12R,14S,20S,23S,27S,30S,36S,38Z)-20-cyclopentyl-12-ethoxy-8-[2-[3-methoxy-4-(trifluoromethyl)phenyl]ethyl]-4,16,19,22,26,32,35-heptamethyl-30-[(1S)-1-methylpropyl]-27-propyl-23-(pyrrolidine-1-carbonyl)-2-[[4-(trifluoromethyl)phenyl]methyl]spiro[1,4,7,10,16,19,22,26,29,32,35-undecazatricyclo[34.5.1.0^10,14]dotetracont-38-ene-17,1′-cyclobutane]-3,6,9,15,18,21,25,28,31,34,42-undecone] | AA (a compound having 20 or more is denoted as AA) | A (a compound having 10 or more and less than 20 is denoted as A)
CCC[C@H]1C(=O)N[C@@H]([C@@H](C)CC)C(=O)N(C)CC(=O)N(C)[C@H]2C/C=C\CCN(C2=O)[C@@H](Cc2ccc(C)cc2)C(=O)N(C)CC(=O)N[C@@H](CCc2ccc(C(F)(F)F)c(OC)c2)C(=O)N2C[C@H](OCC)C[C@H]2C(=O)N(C)C2(CCC2)C(=O)N(C)[C@@H](C2CCCC2)C(=O)N(C)[C@H](C(=O)N2CCCC2)CC(=O)N1C [PP3106, (2S,8S,12R,14S,20S,23S,27S,30S,36S,38Z)-20-cyclopentyl-12-ethoxy-8-[2-[3-methoxy-4-(trifluoromethyl)phenyl]ethyl]-4,16,19,22,26,32,35-heptamethyl-30-[(1S)-1-methylpropyl]-27-propyl-2-(p-tolylmethyl)-23-(pyrrolidine-1-carbonyl)spiro[1,4,7,10,16,19,22,26,29,32,35-undecazatricyclo[34.5.1.0^10,14]dotetracont-38-ene-17,1′-cyclobutane]-3,6,9,15,18,21,25,28,31,34,42-undecone] | A (a compound having 10 or more and less than 20 is denoted as A) | A (a compound having 10 or more and less than 20 is denoted as A)
